Several values for one entry are separate records, joined by “and”; a condition that tells them apart may be missing. Equal values may be shown once. Blank lines part the entries; values can stand above or below the compound they belong to.
Test system: 463943-066-T-J2-PDC complex spheroid growth
Experiment: Anticancer human tumor 463943-066-T-J2-PDC patient-derived colon adenocarcinoma cell line growth inhibition [Asc]
Settings: for viability, T/C: stronger effect = lower value
Procedure: Multicellular complex tumor spheroid response to apoptosis pathway targeting inhibitors Alrizomadlin, Pelcitoclax, and Dasminapant in combination with a variety of drugs and investigational agents in selected tumor cell lines
The MDM2 inhibitor alrizomadlin, the Bcl-2/Bcl-xL inhibitor pelcitoclax, and the IAPs inhibitor dasminapant were evaluated both individually and in combination with standard of care and investigational anticancer small molecules within a complex spheroid model of solid tumors. . Complex spheroids include a stromal component modeled by human endothelial cells (HUVEC) and fibroblasts modeled by human mesenchymal stem cells (MSCs). The concentration ranges selected for each drug and investigational agent were based upon clinically achievable concentrations if the clinical Cmax of the agent was known.
Compounds. The drugs and investigational agents: alrizomadlin (APG-115; NSC831270), pelcitoclax (APG-1252; NSC835773), dasminapant (APG-1387;NSC834197), TAK-243 (NSC785004), copanlisib (NSC809693), olaparib (NSC753686), talazoparib (NSC767125), cobimetinib (NSC 768068), eltanexor (KPT-8602, NSC 794443), abemaciclib (NSC 768073), sotorasib (NSC818433), adagrasib (NSC 831453), MRTX-1133 (NSC 836407), Iadademestat (ORY1001, NSC 806812), and RMC-4630 (NSC839698), were obtained from the NCI Developmental Therapeutics Program Chemical Repository. The FDA-approved anticancer drug set is available from the Developmental Therapeutics Program at https://dtp.cancer.gov/organization/dscb/obtaining/available plates.htm. […] The stock solutions were prepared in dimethyl sulfoxide (DMSO, Sigma-Aldrich, St. Louis, MO, cat. D2650) at 800-fold the tested concentration and stored at -70 degrees C prior to their use. All drugs and investigational agents were tested over a range starting from a high concentration at or near the clinical Cmax and decreasing in half-log increments. If the clinical Cmax for an agent had not been determined, the highest concentration tested was 10 microM.
The patient-derived cancer (PDC) cell lines include five colon adenocarcinomas: 186277-243-T-J2-PDC, 616215-338-R-J1-PDC, 439559-082-T-J2-PDC, 463943-066-T-J2-PDC, and 519858-162-T-J1-PDC; three pancreatic carcinomas: 323965-272-R-J2-PDC, 521955-158-R6-J3-PDC, and 521955-158-R2-J5-PDC; two uterine sarcomas: 327498-152-R-J2-PDC and 993429-296-R-J1-PDC; two rhabdomyosarcomas: 755483-174-R-J1-PDC and 772245-204-R-J1-PDC; two soft tissue sarcomas: 126254-015-R-J1-PDC and 494315-158-R-J1-PDC; two malignant fibrous histiocytomas: 317291-083-R-J1-PDC and 596521-263-R-J1-PDC; two breast carcinomas: 171881-019-R-J1-PDC and 885512-296-R-J2-PDC; and one ovarian carcinoma: 6556581-035-R-J-PDC were obtained from the NCI PDMR, (https://pdmr.cancer.gov). The established cell lines HSSY-2 synovial sarcoma (RRID:CVCL 8719), SYO-1 synovial sarcoma (RRID:CVCL_7146), MPNST malignant peripheral neural sheath tumor were obtained from the Sloan Kettering Institute. The following established cell lines were purchased from the American Type Culture Collection (ATCC, Manassas, VA), Sor the received from the NCI repository:, PANC-1 pancreatic carcinoma (CRL-1469, RRID:CVCL_0480), OVCAR-5 ovarian carcinoma (RRID:CVCL_1628), OVCAR-8 ovarian carcinoma (RRID:CVCL_1629), , MCF-7 breast carcinoma (CRL-12584, RRID:CVCL_0031), MDA-MB-231 breast carcinoma (CRL-12532, RRID:CVCL_0062), NCI-H1876 small cell lung carcinoma (CRL-5902, RRID:CVCL_1503), NCI-H510A small cell lung carcinoma (HTB-184, RRID:CVCL_1565), NCI-H1417 (CRL-5869, RRID:CVCL_1469), and NCI-H196 small cell lung carcinoma (CRL-5823, RRID:CVCL_1509). Dr. Peter Houghton (Greehey Children's Cancer Research Institute, University of Texas Health Science Center, San Antonio, TX) provided Rh-18 rhabdomyosarcoma (RRID:CVCL_1659). Pooled donor human umbilical vein endothelial cells (HUVEC, Lonza, cat. CC-2519) and human mesenchymal stem cells (hMSC, Lonza, cat. PT-2501) were purchased from Lonza (Walkersville, MD).
Cell Culture. […]
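Note: compound exposure lasted 7 days.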
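Throughout, for viability, T/C: 100% = DMSO vehicle control wells.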

IC50 (curve of first compound, second compound 0.0316 µM): > 10 µM | IC50 (curve of first compound, second compound 0.1 µM): > 10 µM | IC50 (curve of first compound, second compound 0.316 µM): > 10 µM | IC50 (curve of first compound, second compound 1 µM): > 10 µM | IC50 (curve of first compound, second compound 3.16 µM): > 10 µM | IC50 (curve of first compound, second compound 10 µM): < 0.0316 µM
SMILES: C#Cc1c(F)ccc2cc(O)cc(-c3ncc4c(N5CC6CCC(C5)N6)nc(OCC56CCCN5CC(F)C6)nc4c3F)c12 (centres undefined) + Cc1c(S(C)(=O)=O)c(-c2cc(F)cc(N3CCN(c4ccc(NS(=O)(=O)c5ccc(NC(CCN6CCC(C(=O)OCCCP(=O)(O)O)CC6)CSc6ccccc6)c(S(=O)(=O)C(F)(F)F)c5)cc4)CC3)c2)c(-c2ccc(Cl)cc2)n1C(C)C
viability, T/C (second compound 0.0316 µM, first compound 0.0316 µM): 96.3% | viability, T/C (second compound 0.0316 µM, first compound 0.1 µM): 93.3% | viability, T/C (second compound 0.0316 µM, first compound 0.316 µM): 101% | viability, T/C (second compound 0.0316 µM, first compound 1 µM): 102% | viability, T/C (second compound 0.0316 µM, first compound 3.16 µM): 103% | viability, T/C (second compound 0.0316 µM, first compound 10 µM): 97.5% | viability, T/C (second compound 0.1 µM, first compound 0.0316 µM): 101% | viability, T/C (second compound 0.1 µM, first compound 0.1 µM): 97.1% | viability, T/C (second compound 0.1 µM, first compound 0.316 µM): 101% | viability, T/C (second compound 0.1 µM, first compound 1 µM): 94.1% | viability, T/C (second compound 0.1 µM, first compound 3.16 µM): 98% | viability, T/C (second compound 0.1 µM, first compound 10 µM): 82.1% | viability, T/C (second compound 0.316 µM, first compound 0.0316 µM): 93.4% | viability, T/C (second compound 0.316 µM, first compound 0.1 µM): 92.8% | viability, T/C (second compound 0.316 µM, first compound 0.316 µM): 88.4% | viability, T/C (second compound 0.316 µM, first compound 1 µM): 93.1% | viability, T/C (second compound 0.316 µM, first compound 3.16 µM): 97.2% | viability, T/C (second compound 0.316 µM, first compound 10 µM): 73.4% | viability, T/C (second compound 1 µM, first compound 0.0316 µM): 74.5% | viability, T/C (second compound 1 µM, first compound 0.1 µM): 76.5% | viability, T/C (second compound 1 µM, first compound 0.316 µM): 80.5% | viability, T/C (second compound 1 µM, first compound 1 µM): 80.6% | viability, T/C (second compound 1 µM, first compound 3.16 µM): 77.7% | viability, T/C (second compound 1 µM, first compound 10 µM): 72.3% | viability, T/C (second compound 3.16 µM, first compound 0.0316 µM): 65.3% | viability, T/C (second compound 3.16 µM, first compound 0.1 µM): 64.3% | viability, T/C (second compound 3.16 µM, first compound 0.316 µM): 63.3% | viability, T/C (second compound 3.16 µM, first compound 1 µM): 62.1% | viability, T/C (second compound 3.16 µM, first compound 3.16 µM): 65.9% | viability, T/C (second compound 3.16 µM, first compound 10 µM): 61.3% | viability, T/C (second compound 10 µM, first compound 0.0316 µM): 48.9% | viability, T/C (second compound 10 µM, first compound 0.1 µM): 47.7% | viability, T/C (second compound 10 µM, first compound 0.316 µM): 50.2% | viability, T/C (second compound 10 µM, first compound 1 µM): 51.2% | viability, T/C (second compound 10 µM, first compound 3.16 µM): 51.2% | viability, T/C (second compound 10 µM, first compound 10 µM): 43.9%

IC50 (curve of compound): > 10 µM
SMILES: O=C(c1cc(Cc2n[nH]c(=O)c3ccccc23)ccc1F)N1CCN(C(=O)C2CC2)CC1
viability, T/C (compound 0.0316 µM): 98.1% and 99.9% and 93.3% | viability, T/C (compound 0.1 µM): 98.8% and 91.9% and 78.9% | viability, T/C (compound 0.316 µM): 99.5% and 98.5% and 103% | viability, T/C (compound 1 µM): 96.7% and 97.9% and 108% | viability, T/C (compound 3.16 µM): 103% and 97.2% and 92.4% | viability, T/C (compound 10 µM): 92.1% and 91.5% and 97.2%

Source: PubChem BioAssay AID1963422 (Molecular Pharmacology Branch, DTP, NCI, 2024)
